Measured values reported in article PMC5765747 (Advanced materials (Deerfield Beach, Fla.), 2017).
Values after ≈ are worked out from the molar mass of the structure shown. Where a SMILES comes first, the peptide text is derived from it. Bridges are numbered along the chain shown (N, C = ends). [ ]: non-standard residue; d: D form. The star is where a group is joined. X1 = CC[C@H](C)CCCCC(=O)*; Dab = NCC[C@H](N)C(=O)O

System: P. aeruginosa PA01
Assay: Overnight culture growth assay
Assay type: cell-based

Row | Compound | MIC (P. aeruginosa in LB, 2×10^6 CFU/ml, turbidity at 600 nm) [µg/mL] | inhibitory activity against P. aeruginosa in screening range (peptide concentration range 0 – 5 µM, Figure S1)
1 | CC[C@H](C)CCCCC(=O)N[C@@H](CCN)C(=O)N[C@H](C(=O)N[C@@H](CCN)C(=O)N[C@H]1CCNC(=O)[C@H]([C@@H](C)O)NC(=O)[C@H](CCN)NC(=O)[C@H](CCN)NC(=O)[C@H](CC(C)C)NC(=O)[C@@H](CC(C)C)NC(=O)[C@H](CCN)NC1=O)[C@@H](C)O [colistin] (X1-[Dab]T[Dab][Dab][Dab][dL]L[Dab][Dab]T; lactam 4-C (inferred); N-terminus assumed) | 0.25 (≈ 0.214 µM) | –
2 | D[KLAKLAK]2 [dKK] | – | no activity
